# Laboratory results reported in patent US20260256790A1, “DEBIO-0123 IN COMBINATION WITH TEMOZOLOMIDE AND RADIOTHERAPY FOR USE IN TREATING GLIOMA” (Debiopharm International S.A., priority 2023, published 2026).
# Key:
# [1] = system: T98G GBM cell line; assay: Colony formation with radiotherapy, T98G; type: cell-based; conditions: 0.1 μM to 5.0 μM, irradiated at 1, 2 and 4 Gy, p<0.0001
# Protocol: (§1) GBM tumor cells (T98G, LN18, SNB-19 and U251) were grown as an adherent monolayer at 37° C. in a humidified atmosphere (5% CO2, 95% air). For experimental use, tumor cells were detached from culture flasks by a 5-minute treatment with trypsin-versene, in Hanks' medium without calcium or magnesium and neutralized by addition of complete culture medium. Cells were counted and viability assessed using a 0.25% trypan blue exclusion assay. All cell lines were appropriately seeded following the conditions for monolayer colony formation in 6-well plates (Ref #152795, Nunc, Dutscher) in 1.9 ml of cell culture medium, at 3 densities for evaluation of a proclonogenic effect. […]
# (§2) Treatments were performed at 24 hours (D1) after seeding by addition of ×20 concentrated compound or vehicle solutions, to obtain final concentrations of 0.1 μM to 5.0 μM of Compound of formula (I) [referred to as CoF (I) in FIG. 3]. […] After 14 days of incubation, colonies were counted after being stained through incubation with 500 μl of a solution of water containing 0.05% (w/v) of methylene blue (Ref. M4159, Sigma) for 2 hours. Colonies were counted using a colony counter pen (Ref #045855, Dutscher, Brumath, France). The Surviving Fraction was calculated for each condition using the equations described below and plotted on a semi-logarithmic graph using the Linear-Quadratic model. […]
# [2] = system: SNB-19 GBM cell line; assay: Colony formation with radiotherapy, SNB-19; type: cell-based; conditions: SNB19; 0.1 μM to 5.0 μM; irradiated at 1, 2 and 4 Gy; p<0.0001
# Protocol: as §1, §2
# [3] = system: U87-MG-luc GBM cell line; assay: U87-MG-luc tumors implanted subcutaneously in mice, monotherapy; type: in vivo; conditions: for Tumor volume vs vehicle controls at end of treatment: subcutaneous, 28 days
# Protocol: Male athymic nude mice were injected A) subcutaneously (s.c.) or B) cerebrally (i.e.) with 1×10^5 U87-MG-luc cells in Matrigel. Animals implanted i.e. were imaged to monitor tumor establishment and growth throughout the study using an In Vivo Imaging System (IVIS) once weekly, detecting tumor bioluminescence (BLI) in photons. For animals implanted s.c., tumor growth was monitored twice weekly by caliper measurement and tumor volume calculated using the equation V=(L×W×W)/2, where V is tumor volume, L is tumor length (the longest tumor dimension) and W is tumor width (the longest tumor dimension perpendicular to L). Upon confirmation of tumor establishment, animals were randomly allocated into 3 (A, s.c.) or 2 (B, i.e.) treatment groups (n=8 animals per group) consisting of vehicle (0.5% methycellulose, 1% Tween 80 P.O. and saline I.V.) or Compound of formula (I) [CoF (I)] formulated as a suspension in 0.5% methycellulose and 1% Tween 80. The treatments were administered over a 28 day cycle and compound of formula (I) was administered orally at a dose of either 30 mg/kg (for both A and B) or 60 mg/kg (for A only), once daily (QD)). During routine monitoring, the animals were checked for any effects of tumor growth and treatments on behavior such as mobility, food and water consumption, body weight gain/loss 3 times a week, eye/hair matting and any other abnormalities. Mortality and observed clinical signs were recorded for individual animals in detail.
smiles,measurement,setting,value
Cc1cc(Nc2ncc3c(n2)N(C)CN(c2c(Cl)cccc2Cl)C3=O)ccc1C1CCN(C)CC1 [Compound of formula (I)],"Effect on radiotherapy (surviving fraction, colony formation)",[1],significantly increased effect of radiotherapy
same,"Effect on radiotherapy (surviving fraction, colony formation)",[2],significantly increased effect of radiotherapy
same,Body weight loss / tolerability,"[3]; all dose levels (30 or 60 mg/kg QD, 28 days), s.c. and cerebral models",No significant body weight loss
same,Tumor volume vs vehicle controls at end of treatment,"[3]; 30 mg/kg oral QD, p=0.0009 on day 28",significantly smaller tumors than vehicle controls
same,Tumor volume vs vehicle controls at end of treatment,"[3]; 60 mg/kg oral QD, p<0.0001 on day 28",significantly smaller tumors than vehicle controls
